Series [1] has as its system mRNA expression of CD27, PD1, or PDL1. Briefly: Pearson correlation of drug concentration (PRISM, GDSC1, GDSC2) with mRNA expression of immune checkpoint genes in CCLE NSCLC cell lines. Also on record: species or system human. The conditions noted are these: p<0.05, Pearson's correlation, datasets PRISM, CCLE NSCLC cell lines (n=117). An excerpt:
The growth inhibitory activity of 4,518 drugs was quantified in 578 human cancer cell lines using the PRISM molecular barcoding and multiplexed screening method. The PRISM dataset is available at the Cancer Dependency Map portal (https://depmap.org/portal/download/, accessed on 1 Apr. 2021). Drug responses of 9 commonly used chemotherapeutic regimens in treating NSCLC were included: carboplatin, cisplatin, paclitaxel, docetaxel, gemcitabine, vinorelbine, etoposide, gefitinib, and erlotinib. For each drug, cell lines with IC50 or EC50 value higher than the maximum dose were defined as resistant; cell lines with IC50 or EC50 value lower than the minimum dose were defined as sensitive. The remaining cell lines were divided into groups of resistant, sensitive, or partial response by using the mean±0.5 standard deviation (SD) of the drug activity metrics, including IC50, ln(IC50), EC50, or ln(EC50) values. Cell lines with a drug activity value less than the mean−0.5 SD were defined as sensitive to the drug, and those with a drug activity value between the mean+0.5 SD and the mean−0.5 SD were defined as having a partial response to the drug. Cell lines with a drug activity value greater than the mean+0.5 SD were defined as resistant to the drug. This categorization corresponds to the RECIST 1.1 system (i.e., complete response, partial response, and stable disease/disease progression) in evaluating chemotherapeutic response in solid tumors. Drug screening data was downloaded from Genomics of Drug Sensitivity in Cancer (GDSC) Project (https://www.cancerrxgene.org/downloads/bulk_download, accessed on 15 Apr. 2021). The GDSC Project screened more than 1,000 genetically characterized human cancer cell lines with a wide range of anti-cancer therapeutic agents. Among the commonly used chemotherapeutic regimens in treating NSCLC drugs, […] were found in GDSC1, including cisplatin, docetaxel, erlotinib, etoposide, gefitinib, gemcitabine, pemetrexed, and vinorelbine; 7 were found in GDSC2, including cisplatin, docetaxel, erlotinib, gefitinib, gemcitabine, paclitaxel, and vinorelbine. For each drug, cell lines were defined as resistant, sensitive, or partial response by using the mean±0.5 SD of the IC50 values as described above. Various statistical methods can be utilized. Statistical analysis was performed using Rstudio version 1.4.1106. […] Survival analysis was performed using Kaplan-Meier analysis with the survival package in R. Log-rank tests were used to assess the difference in survival probability from different groups in Kaplan-Meier analyses. The genes in the networks were evaluated with Cox proportional hazard model and Kaplan-Meier analysis. Pearson's correlation test was used to find the relationship be-tween two variables. The multivariate Cox regression analysis was used to build the model of risk-scores. […] Pearson's correlation test was used to find the relationship between two variables. One-tailed two proportion z-test was used to compare if two proportions are the same.

For series [2], the system named is human NSCLC epithelial cell lines. Briefly: PRISM/GDSC drug response in human NSCLC epithelial cell lines (n=135). The series is classed as cell-based. As to conditions: average in human NSCLC epithelial cell lines (FIG. 18C). An excerpt:
(§1) The PRISM dataset. was obtained from the DepMap portal (https://depmap.org/portal/download/, PRISM repurposing 19Q4, accessed on 1 Apr. 2021). Carboplatin, cisplatin, docetaxel, erlotinib, etoposide, gefitinib, gemcitabine, paclitaxel (Taxol), pemetrexed, and vinorelbine were commonly used chemotherapeutic drugs in NSCLC treatment, the analysis focused on these ten regiments. Drug activity measurements, including IC50, ln(IC50), EC50, and ln(EC50), were used in the analysis. The available CCLE NSCLC cell lines were divided into three groups by the drug activity measurements: sensitive, resistant, and intermediate.
(§2) Drug activity measurements were generated in the GDSC Project. (https://www.cancerrxgene.org/downloads/bulk_download, accessed on 15 Apr. 2021). IC50 and ln(IC50) were the main metrics used in this analysis. The available CCLE NSCLC cell lines were divided into three groups by the drug activity measurements in the GDSC1/2 datasets, i.e., sensitive, resistant, and intermediate.

Series [3] has as its system gene expression of CD27, PD1, CTLA4, or PDL1. Briefly: Pearson correlation of drug-response measurements with gene expression of ICIs in human NSCLC epithelial cell lines. The conditions noted are these: for correlation of EC50 with CD27 mRNA expression: p<0.05, Pearson's correlation test, NSCLC cell lines (n=79, FIG. 18B).
Text: as §1, §2
RStudio (version 1.4.1106), an integrated development environment for R, was used as the main tool for performing the statistical analyses. A two-tailed, unpaired Student's t-test was used to evaluate the significance of differential expression between two groups. Survival analysis and curves were generated using the Kaplan-Meier method, and log-rank tests were used to assess the difference in survival probability between different groups. The univariate and multivariate Cox regression analyses were used in the prognostic evaluation and curve generation with R packages “survival”, “survminer”, and “ggplot2”. The strength of the linear relationship between two sample groups was measured with Pearson's correlation test. Results in statistical tests were considered significant with a p-value<0.05.
Several targeted therapeutic candidates were identified with CMap.

The subject of series [4] is advanced solid tumors including NSCLC. As to conditions: single-agent, cited from earlier work.
The test system of the next series is CCLE NSCLC cell lines. The series can be described thus: PRISM drug screen, growth inhibitory activity in CCLE NSCLC cell lines. Format: cell-based. As to conditions: Homo sapiens, read-out: average IC50 or EC50 value. An excerpt:
The growth inhibitory activity of 4,518 drugs was quantified in 578 human cancer cell lines using the PRISM molecular barcoding and multiplexed screening method. The PRISM dataset is available at the Cancer Dependency Map portal (https://depmap.org/portal/download/, accessed on 1 Apr. 2021). Drug responses of 9 commonly used chemotherapeutic regimens in treating NSCLC were included: carboplatin, cisplatin, paclitaxel, docetaxel, gemcitabine, vinorelbine, etoposide, gefitinib, and erlotinib. For each drug, cell lines with IC50 or EC50 value higher than the maximum dose were defined as resistant; cell lines with IC50 or EC50 value lower than the minimum dose were defined as sensitive. The remaining cell lines were divided into groups of resistant, sensitive, or partial response by using the mean±0.5 standard deviation (SD) of the drug activity metrics, including IC50, ln(IC50), EC50, or ln(EC50) values. Cell lines with a drug activity value less than the mean−0.5 SD were defined as sensitive to the drug, and those with a drug activity value between the mean+0.5 SD and the mean−0.5 SD were defined as having a partial response to the drug. Cell lines with a drug activity value greater than the mean+0.5 SD were defined as resistant to the drug. This categorization corresponds to the RECIST 1.1 system (i.e., complete response, partial response, and stable disease/disease progression) in evaluating chemotherapeutic response in solid tumors.
The growth inhibitory activity of 4,518 drugs was quantified in 578 human cancer cell lines using the PRISM molecular barcoding and multiplexed screening method. The PRISM dataset is available at the Cancer Dependency Map portal (https://depmap.org/portal/download/, accessed on 1 Apr. 2021). Drug responses of 9 commonly used chemotherapeutic regimens in treating NSCLC were included in this study: carboplatin, cisplatin, paclitaxel, docetaxel, gemcitabine, vinorelbine, etoposide, gefitinib, and erlotinib. For each drug, cell lines with IC50 or EC50 value higher than the maximum dose were defined as resistant; cell lines with IC50 or EC50 value lower than the minimum dose were defined as sensitive. The remaining cell lines were divided into groups of resistant, sensitive, or partial response by using the mean±0.5 standard deviation (SD) of the drug activity metrics, including IC50, ln(IC50), EC50, or ln(EC50) values. Cell lines with a drug activity value less than the mean−0.5 SD were defined as sensitive to the drug, and those with a drug activity value between the mean+0.5 SD and the mean−0.5 SD were defined as having a partial response to the drug. Cell lines a drug activity value greater than the mean+0.5 SD were defined as resistant to the drug. This categorization corresponds to the RECIST 1.1 system (i.e., complete response, partial response, and stable disease/disease progression) in evaluating chemotherapeutic response in solid tumors.

For series [5], the system named is FRα (FOSL1)-positive advanced solid tumors. The conditions noted are these: patient derived xenograft models and phase I study; cited from earlier work.
The subject of series [6] is NSCLC. The conditions noted are these: combination with gefitinib in NSCLC; cited from earlier work.
The subject of another series is NSCLC cells. As to conditions: cited from earlier work.
In series [7] the test system is xenograft mouse model of lung cancer. As to conditions: cited from earlier work.
The next series relates to resected NSCLC tumors. The conditions noted are these: neoadjuvant; 9 of 20 resected NSCLC tumors, stages I, II, and IIIA; cited from earlier work.
Series [8] relates to NSCLC. The conditions noted are these: stage IIIB, after chemoradiation, cited from earlier work.
The mark [9] stands for this setting: CCLE NSCLC cell lines, 7-gene network study (FIG. 13C).
Setting [10] is: average over CCLE NSCLC cell lines (n=117), 8 doses 0.0006 μM to 10 μM.

Like-named read-outs stand apart in the source and are kept apart here.

In the case of `CCc1c2c(nc3ccc(OC(=O)N4CCC(N5CCCCC5)CC4)cc13)-c1cc3c(c(=O)n1C2)COC(=O)[C@]3(O)CC` [irinotecan], in series [1], the “correlation of drug concentration [IC50, EC50, ln(IC50), or ln(EC50)] with mRNA expression of CD27, PD1, or PDL1” value was “significant negative correlation”.
On the same count and under the same terms, the result for `COc1ccc(C[C@H](N)C(=O)N[C@H]2[C@@H](O)[C@H](n3cnc4c(N(C)C)ncnc43)O[C@@H]2CO)cc1` [puromycin] reads “significant negative correlation”.
As to `CO[C@@H](C(=O)N1Cc2n[nH]c(NC(=O)c3ccc(N4CCN(C)CC4)cc3)c2C1)c1ccccc1` [danusertib], in series [2], the EC50 is below 1000 nM and the concentration for half-maximal inhibition (IC50) is below 1000 nM. Also, the “correlation of EC50 with CD27 mRNA expression” value in series [3] is given as “significant negative correlation”. Besides, in [3] (listed as Danusertib), the “correlation of EC50 with CD27 mRNA expression” value is “inhibitory association”. In addition, the anti-tumor activity result in series [4] (common solid tumor types) was “marginal anti-tumor activity”. In addition, in [4] (phase I and phase II clinical studies), the tolerability result is given as “well tolerated”.
For the compound `OC1(c2ccc(Cl)c(C(F)(F)F)c2)CCN(CCCC(c2ccc(F)cc2)c2ccc(F)cc2)CC1` [penfluridol], the IC50 in the series with CCLE NSCLC cell lines (setting [9]) was at most 1000 nM.
Take MORAb-202: the antitumor response result in series [5] was “robust antitumor response”.
Consider `C[C@H]1[C@H](NC(=O)/C(=N\OC(C)(C)C(=O)O)c2csc(N)n2)C(=O)N1S(=O)(=O)O` [aztreonam], for which the “correlation of drug concentration [IC50, EC50, ln(IC50), or ln(EC50)] with mRNA expression of CD27, PD1, or PDL1” value in series [1] is given as “significant negative correlation”.
Regarding `CCN(CC)C(=S)SSC(=S)N(CC)CC` [disulfiram], the IC50 with CCLE NSCLC cell lines (setting [10]) was below 1000 nM.
Take `COc1cc(/C=C/C(=O)N2CCC=CC2=O)cc(OC)c1OC` [piperlongumine]: the “correlation of drug concentration [IC50, EC50, ln(IC50), or ln(EC50)] with mRNA expression of CD27, PD1, or PDL1” value in [1] was “significant negative correlation”.
With `O=C1c2c(O)ccc(O)c2C(=O)c2c(NCCNCCO)ccc(NCCNCCO)c21` [mitoxantrone], in the series on CCLE NSCLC cell lines (setting [10]), the half-maximal inhibitory concentration (IC50) was below 1000 nM. The “correlation of drug concentration [IC50, EC50, ln(IC50), or ln(EC50)] with mRNA expression of CD27, PD1, or PDL1” value in series [1] is “significant negative correlation”.
On to ivermectin, for which the “correlation of drug concentration [IC50, EC50, ln(IC50), or ln(EC50)] with mRNA expression of CD27, PD1, or PDL1” value in [1] is reported as “significant negative correlation”.
Turning to `CC1CC(OC(=O)c2ccccc2O)CC(C)(C)C1` (stereo not shown) [homosalate], the concentration for half-maximal inhibition (IC50) with CCLE NSCLC cell lines (setting [9]) is at most 1000 nM.
For `COc1cccc2c1C(=O)c1c(O)c3c(c(O)c1C2=O)C[C@@](O)(C(=O)CO)C[C@@H]3O[C@H]1C[C@H](N)[C@H](O)[C@H](C)O1` [doxorubicin], the concentration for half-maximal inhibition (IC50) in the series with CCLE NSCLC cell lines (setting [10]) was below 1000 nM.
As for `CC(C)c1ccccc1Cc1cc(C(=O)Nc2ccc(S(=O)(=O)c3ccccc3C(C)(C)C)cc2)c(O)c(O)c1O` [TW-37], the “effect on pro-apoptosis and anti-migration ability of gefitinib” value in the series with NSCLC [6] is reported as “enhanced”.
For the compound `Cc1nc(Nc2ncc(C(=O)Nc3c(C)cccc3Cl)s2)cc(N2CCN(CCO)CC2)n1` [dasatinib], the half-maximal inhibitory concentration (IC50) with CCLE NSCLC cell lines (setting [9]) is at most 1000 nM.
Turning to `Cc1cnc(Nc2ccc(OCCN3CCCC3)cc2)nc1Nc1cccc(S(=O)(=O)NC(C)(C)C)c1` [TG-101348], the “association with PDL1 gene expression” value in [3] (human NSCLC epithelial cell lines) was “inhibitory association”. In addition, in the series on NSCLC cells, the PDL1 protein expression result is reported as “reduced PDL1 protein expression” and the erlotinib-resistance entry is “reversed erlotinib-resistance”. Further, in series [7], the “radiosensitization and EMT blockade” value is “mediated radiosensitization and EMT blockade”.
With nivolumab: PD-1 inhibitor, in the series with resected NSCLC tumors, the pathological response was 45%.
`CC(/C=C/C(=O)NO)=C\[C@@H](C)C(=O)c1ccc(N(C)C)cc1` [trichostatin A]: the “correlation of drug concentration [IC50, EC50, ln(IC50), or ln(EC50)] with mRNA expression of CD27, PD1, or PDL1” value in [1] is “significant negative correlation”.
On to durvalumab: anti-PD-L1, for which, in the series with NSCLC [8] (durvalumab arm), the “median OS” value was “not reached”. Moreover, in the series with NSCLC [8] (phase III randomized trial), the “overall survival HR vs placebo arm” value was 0.69 (95% CI 0.55-0.86).
As for `C[C@]12O[C@H](C[C@]1(O)CO)n1c3ccccc3c3c4c(c5c6ccccc6n2c5c31)CNC4=O` [lestaurtinib], the IC50 in the series on CCLE NSCLC cell lines (setting [9]) was at most 1000 nM. Besides, in series [2], the EC50 is below 1000 nM and the concentration for half-maximal inhibition (IC50) was below 1000 nM.

As usually defined, the EC50 is the concentration at which the effect is half-maximal. A higher EC50 goes with a need for much substance. The IC50 is the midpoint of a concentration-inhibition curve.
